The source of these data is patent publication US20240366624A1, “METHODS AND COMPOSITIONS FOR TREATING THROMBOTIC DISEASE” (Washington University, priority 2023, published 2024).

Each structure is given as a SMILES string.

The test system of one series is mouse platelets. The experiment in a line: Flow cytometry of P-selectin exposure and αIIbβ3 integrin activation, mouse platelets. The series is classed as cell-based. The conditions noted are these: 3 to 10 μM, mouse platelets, thrombin or CRP. As for the experimental part:
FIG. 10(A-E) is an exemplary embodiment of 15E9 not affecting platelet activation and aggregation in accordance with the present disclosure. Mouse platelets were treated with 0.02-0.03 (FIG. 10A P-selectin, FIG. 10B aIIbβ3) or 0.025 U/ml thrombin (FIG. 10C) in the presence of 10 μg/ml mouse IgG2a (IgG2a) or a blocking anti-ERO1α antibody (15E9). Flow cytometry (FIG. 10(A-B)) and aggregation (FIG. 10C) assays were performed. FIG. 10D: Human platelets were treated with 0.025 U/ml thrombin in the presence of mouse IgG2a (mIgG2a) or 10 μg/ml 15E9 and 16B6, followed by measuring aggregation. […] P values determined by unpaired Student's t-test (vs. mIgG1).
FIG. 18(A-R) is an exemplary embodiment of novel small-molecule inhibitors recapitulating the defect in Ero1α (endoplasmic reticulum oxidoreductase 1a)-null platelets in accordance with the present disclosure. […] After incubation with a different concentration of B12-5, the specific interaction between B12-5 and ERO1α was measured by subtracting the nonspecific binding. The KD value was calculated from the Kon and Koff values. […] P values determined by ANOVA and Dunnett test (FIG. 18(B-E), FIG. 18(1-L), and FIG. 18(O-R) [for B12-5]) or Student t test (FIG. 18M, FIG. 18N, and FIG. 18(O-R) [for BAPTA (1,2-bis(o-aminophenoxy)ethane-N,N,N′,N′-tetraacetic acid)]). […]
On the technique in general: In flow cytometry, cells or beads pass a laser one at a time.

A further series in a line: Water solubility. Format: physicochemical.
The next series deals with platelets. The experiment in a line: Platelet activation and aggregation, platelet source not stated. The series is classed as cell-based. The conditions noted are these: 5-10 microM. The source says: As described herein, small molecule ERO1α inhibitors were identified by performing a high throughput screen using a ChemDiv library. […] Furthermore, intravenous injection of B112-5 reduced the infarct volume in a mouse model of ischemic stroke.

The test system of a further series is human platelets. The experiment in a line: Platelet aggregation, human platelets. Format: cell-based. The conditions noted are these: 3 to 10 μM. As for the experimental part:
FIG. 9(A-C) is an exemplary embodiment of EN460 inhibiting thrombin-induced aggregation of mouse and human platelets in accordance with the present disclosure. (A) Human (FIG. 9A), WT (FIG. 9B), and Ero1α-null (FIG. 9C) platelets were pretreated with EN460, an ERO1α inhibitor, at 1, 3, or 10 μM, and treated with 0.025 U/ml thrombin to induce platelet aggregation. The data represent the mean±SD (n=3). P values determined by ANOVA and Dunnett's test (FIG. 9(A-B)) or Student's t-test (FIG. 9C).
FIG. 10(A-E) is an exemplary embodiment of 15E9 not affecting platelet activation and aggregation in accordance with the present disclosure. Mouse platelets were treated with 0.02-0.03 (FIG. 10A P-selectin, FIG. 10B aIIbβ3) or 0.025 U/ml thrombin (FIG. 10C) in the presence of 10 μg/ml mouse IgG2a (IgG2a) or a blocking anti-ERO1α antibody (15E9). Flow cytometry (FIG. 10(A-B)) and aggregation (FIG. 10C) assays were performed. FIG. 10D: Human platelets were treated with 0.025 U/ml thrombin in the presence of mouse IgG2a (mIgG2a) or 10 μg/ml 15E9 and 16B6, followed by measuring aggregation. FIG. 10E: WT and Ero1α null platelets were treated with 10 μg/ml mouse IgG1 (mIgG1) or a blocking anti-PDI antibody (BD34), followed by measuring aggregation induced by 0.025 U/ml thrombin. The data represent the mean±SD (n=3). P values determined by unpaired Student's t-test (vs. mIgG1).

Another series addresses T1, MAO-B (Homo sapiens, UniProt P27338).
T1 sequence (P27338 1-520): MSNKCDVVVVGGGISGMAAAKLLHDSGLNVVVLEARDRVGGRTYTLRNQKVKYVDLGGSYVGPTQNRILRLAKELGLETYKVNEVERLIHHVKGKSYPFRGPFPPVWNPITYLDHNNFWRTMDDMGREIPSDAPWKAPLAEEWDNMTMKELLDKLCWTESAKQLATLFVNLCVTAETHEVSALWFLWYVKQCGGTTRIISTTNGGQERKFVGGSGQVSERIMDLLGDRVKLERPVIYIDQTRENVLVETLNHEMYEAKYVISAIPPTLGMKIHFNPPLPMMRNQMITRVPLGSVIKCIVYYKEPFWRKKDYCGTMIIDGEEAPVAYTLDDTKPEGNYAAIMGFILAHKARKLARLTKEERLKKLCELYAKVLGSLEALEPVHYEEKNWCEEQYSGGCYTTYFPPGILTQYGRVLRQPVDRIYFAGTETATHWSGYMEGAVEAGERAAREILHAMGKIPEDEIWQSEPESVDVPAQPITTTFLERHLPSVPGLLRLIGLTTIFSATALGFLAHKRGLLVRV
As to conditions: from studies; cited from earlier work.

As for `O=C(CSc1nc(O)cc(O)n1)N1c2ccccc2Sc2ccccc21` [B12-5], in the series with mouse platelets, the “P-selectin exposure and αIIbβ3 activation” value was “significantly reduced”. Besides, the water solubility entry in “Water solubility” is reported as “poor”. The “platelet activation and aggregation” value with platelets is recorded as “significantly inhibited”.

As to `O=C(O)c1cc(N2N=C(C(F)(F)F)/C(=C/c3ccc(-c4ccccc4)o3)C2=O)ccc1Cl` [EN460], in the series with human platelets, the thrombin-induced aggregation entry is recorded as “abrogated”. On MAO-B, the IC50 is 30.6 µM.

One may read the IC50 as the concentration that gives 50% inhibition.
